This is an account of results in US8754115B2, “Fungicidal pyrazoles” (E I du Pont de Nemours and Company, priority 2010, dated 2014).

Type in all cases: in vivo
Test [1] has as its system Septoria nodorum. The experiment in a line: Test C: preventive spray on wheat seedlings, visual disease rating (Septoria glume blotch). The method, boiled down:
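Wheat seedlings were sprayed to run-off with 200 ppm suspension (40 ppm where marked; 200 ppm ≈ 800 g/ha) in acetone/water with 250 ppm Trem 014, then inoculated next day with Septoria nodorum spores. Incubation was 48 h saturated at 24 °C, then 6 days at 20 °C; visual rating 0–100% disease control versus controls.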

For test [2], the system named is Alternaria solani. The experiment in a line: Test B: preventive spray on tomato seedlings, visual disease rating (tomato early blight). The method, boiled down:
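Compounds were suspended at 200 ppm (asterisked values at 40 ppm) in acetone/water with surfactant and sprayed to run-off on tomato seedlings, 200 ppm being equivalent to 800 g/ha. A. solani spores were inoculated the next day, with 48 h at 27 °C in saturated air, then 5 days at 20 °C. Disease control was rated visually, 0–100% relative to controls.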

Test [3] has as its system Septoria tritici. The experiment in a line: Test D: preventive spray on wheat seedlings, visual disease rating (wheat leaf blotch). The gist of the method:
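Wheat seedlings were sprayed to run-off with a 200 ppm suspension (equal to 800 g/ha), or 40 ppm where marked with an asterisk, and inoculated with Septoria tritici spores the next day. Plants were kept at 24 °C in saturated air for 48 h, then at 20 °C for 19 days. Disease control was rated visually from 0 to 100 relative to controls.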

Test [4] deals with Blumeria graminis f. sp. tritici. The experiment in a line: Test F: preventive spray on wheat seedlings, visual disease rating (wheat powdery mildew). The method, boiled down:
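Compound in acetone/water (50/50) with 250 ppm surfactant, sprayed to run-off on wheat seedlings at 200 ppm (≈800 g/ha) or, where marked, 40 ppm. Seedlings dusted with spores the next day, kept 8 days at 20° C., then rated visually as % disease control versus untreated plants.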

Test [5] relates to Puccinia recondite f. sp. tritici. The experiment in a line: Test E2: preventive spray on wheat seedlings, visual disease rating (wheat leaf rust). The method, boiled down: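 Test suspension (acetone 3% of volume, acetone/water 50/50, 250 ppm Trem 014), 200 ppm unless starred (40 ppm), sprayed to run-off on wheat seedlings; inoculated next day with P. recondita spores. 24 h saturated atmosphere at 20 °C, then 7 days at 20 °C; visual rating, 100 = full control vs untreated.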

Test [6] has the same test system. The experiment in a line: Test E1: curative spray on wheat seedlings after inoculation, visual disease rating (wheat leaf rust). The gist of the method:
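Seedlings inoculated with rust spores, held 24 h in saturated atmosphere at 20 °C, then 2 days at 20 °C before curative spray to run-off with test suspension (200 ppm ≈ 800 g/ha, or 40 ppm where marked) in acetone/water with surfactant. Visual disease control rating (0–100) after 6 further days at 20 °C.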

The subject of test [7] is Botrytis cinerea. The experiment in a line: Test A: preventive spray on tomato seedlings, visual disease rating (tomato Botrytis). The method, boiled down: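 Tomato seedlings sprayed to run-off with 200 ppm suspension (800 g/ha; asterisk marks 40 ppm), inoculated next day with Botrytis cinerea spores, held 48 h saturated at 20 °C then 3 days at 24 °C. Visual rating: 100 = full disease control, 0 = none, relative to controls.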

Where [8] appears, read: no asterisk: standard test suspension, not 40 ppm.
Setting [9] is: no asterisk: standard test suspension, not 40 ppm, 100 = 100% disease control, 0 = none.
[10] abbreviates: asterisk: 40 ppm test suspension.

Marks after values point to notes of the source that are not given here.

With `Cc1nn(C)c(-c2c(F)cc(F)cc2F)c1C(O)c1ccc(F)cc1Cl` (stereo not drawn) [compound 61], in test [1] (setting [8]), the “Test C rating (% disease control)” value worked out at 99%. Besides, the “Test B rating (% disease control)” value in test [2] (setting [8]) was 100%. The “Test D rating (% disease control)” value in test [3] (setting [8]) was determined as 100%. The “Test F rating (% disease control)” value in test [4] (setting [8]) is 100%. Also, the “Test E2 rating (% disease control)” value in test [5] (setting [8]) is reported as 100%. The “Test E1 rating (% disease control)” value in test [6] (setting [8]) is given as 99%. Further, the “Test A rating (% disease control)” value in test [7] (setting [9]) is 100%.

Turning to `COc1cc(F)c(C(O)c2c(C)nn(C)c2-c2c(F)cccc2Cl)c(F)c1` (stereo not drawn) [compound 39], the “Test C rating (% disease control)” value in test [1] (setting [8]) turned out to be 60%. In test [2] (setting [8]), the “Test B rating (% disease control)” value is given as 58%. The “Test D rating (% disease control)” value in test [3] (setting [8]) was 100%. Further, in test [4] (setting [8]), the “Test F rating (% disease control)” value was 99%. In test [5] (setting [8]), the “Test E2 rating (% disease control)” value is recorded as 100%. Besides, in test [6] (setting [8]), the “Test E1 rating (% disease control)” value is recorded as 97%. For the same molecule, the “Test A rating (% disease control)” value in test [7] (setting [9]) came to 95%.

Consider `Cc1nn(C)c(-c2ccc(F)cc2F)c1Oc1ccc(F)cc1F` [compound 13], for which the “Test C rating (% disease control)” value in test [1] (setting [8]) turned out to be 0%. In test [2] (setting [8]), the “Test B rating (% disease control)” value was determined as 0%. In addition, in test [3] (setting [8]), the “Test D rating (% disease control)” value came to 0%. Also, in test [4] (setting [8]), the “Test F rating (% disease control)” value came to 72%. In addition, in test [5] (setting [8]), the “Test E2 rating (% disease control)” value is on record as 0%. Also, the “Test E1 rating (% disease control)” value in test [6] (setting [8]) was found to be 66%. The “Test A rating (% disease control)” value in test [7] (setting [9]) is on record as 100%.

`Cc1nn(C)c(-c2c(F)cccc2F)c1C(O)c1ccc(F)cc1Br` (stereo not drawn) [compound 21]: the “Test C rating (% disease control)” value in test [1] (setting [8]) is 100%. Further, in test [2] (setting [8]), the “Test B rating (% disease control)” value is listed as 100%. Besides, in test [3] (setting [8]), the “Test D rating (% disease control)” value was 100%. In addition, the “Test F rating (% disease control)” value in test [4] (setting [8]) was 98%. For the same molecule, the “Test E2 rating (% disease control)” value in test [5] (setting [8]) worked out at 100%. The “Test E1 rating (% disease control)” value in test [6] (setting [8]) is 100%. In test [7] (setting [9]), the “Test A rating (% disease control)” value amounted to 99%.

In the case of “4-(2-chloro-4-fluorophenoxy)-5-(2,4-difluorophenyl)-1,3-dimethyl-1H-pyrazole [Compound 5]”, the “Test C rating (% disease control)” value in test [1] (setting [8]) came out at 100%. Besides, the “Test B rating (% disease control)” value in test [2] (setting [8]) is 100%. Further, the “Test D rating (% disease control)” value in test [3] (setting [8]) stood at 100%. In addition, in test [4] (setting [8]), the “Test F rating (% disease control)” value is reported as 100%. In test [5] (setting [8]), the “Test E2 rating (% disease control)” value came out at 100%. Further, in test [6] (setting [8]), the “Test E1 rating (% disease control)” value is 99%. For the same molecule, the “Test A rating (% disease control)” value in test [7] (setting [9]) came out at 100%.

`Cc1nn(C)c(-c2c(F)cccc2F)c1Nc1ccc(F)cc1Cl` [compound 50]: the “Test C rating (% disease control)” value in test [1] (setting [8]) was found to be 0%. For the same molecule, the “Test B rating (% disease control)” value in test [2] (setting [8]) is listed as 93%. For the same molecule, the “Test D rating (% disease control)” value in test [3] (setting [8]) was 100%. In test [4] (setting [8]), the “Test F rating (% disease control)” value was determined as 98%. Further, in test [5] (setting [8]), the “Test E2 rating (% disease control)” value stood at 79%. The “Test E1 rating (% disease control)” value in test [6] (setting [8]) is 0%. Besides, the “Test A rating (% disease control)” value in test [7] (setting [9]) worked out at 99%.

As for `Cc1nn(C)c(-c2ccc(F)cc2F)c1Oc1ccc(C#N)cc1Cl` [compound 35], in test [1] (setting [8]), the “Test C rating (% disease control)” value came out at 0%. Further, the “Test B rating (% disease control)” value in test [2] (setting [8]) was found to be 0%. Further, in test [3] (setting [8]), the “Test D rating (% disease control)” value was 100%. Also, the “Test F rating (% disease control)” value in test [4] (setting [8]) is on record as 0%. Further, the “Test E2 rating (% disease control)” value in test [5] (setting [8]) is on record as 73%. In test [6] (setting [8]), the “Test E1 rating (% disease control)” value stood at 9%. The “Test A rating (% disease control)” value in test [7] (setting [9]) worked out at 98%.

Consider `Cc1nn(C)c(-c2c(F)cc(F)cc2F)c1C(=O)c1ccc(F)cc1F` [compound 60], for which the “Test C rating (% disease control)” value in test [1] (setting [8]) turned out to be 0%. Besides, in test [2] (setting [8]), the “Test B rating (% disease control)” value is reported as 0%. For the same molecule, in test [3] (setting [8]), the “Test D rating (% disease control)” value was found to be 0%. For the same molecule, the “Test F rating (% disease control)” value in test [4] (setting [8]) was 99%. Besides, in test [5] (setting [8]), the “Test E2 rating (% disease control)” value stood at 55%. The “Test E1 rating (% disease control)” value in test [6] (setting [8]) was 0%. The “Test A rating (% disease control)” value in test [7] (setting [9]) came to 75%.

`Cc1nn(C)c(-c2ccc(F)cc2Cl)c1Nc1ccc(Cl)cc1Cl` [compound 44]: in test [1] (setting [10]), the “Test C rating (% disease control)” value is 0* %. In addition, the “Test B rating (% disease control)” value in test [2] (setting [10]) is reported as 0* %. Moreover, in test [3] (setting [10]), the “Test D rating (% disease control)” value is given as 99* %. Moreover, the “Test F rating (% disease control)” value in test [4] (setting [10]) is listed as 100* %. In addition, the “Test E2 rating (% disease control)” value in test [5] (setting [10]) was 99* %. Besides, in test [6] (setting [10]), the “Test E1 rating (% disease control)” value is reported as 0* %. In test [7] (setting [10]), the “Test A rating (% disease control)” value is listed as 99* %.
